# Measured values taken from patent US20040253665A1, “Novel peptide-producing enzyme, microbe producing the enzyme and method for dipeptide synthesis using them” (AJINOMOTO CO., INC., priority 2002, published 2004).
# Marks after values point to notes of the source that are not given here. Non-standard residues stand in square brackets, D forms with d. Residues, ends and D or L forms follow the SMILES beside them. No end group written: not given here. *: point of attachment. Tle = CC(C)(C)[C@H](N)C(=O)O; NMeA = CN[C@@H](C)C(=O)O; Boc = CC(C)(C)OC(=O)*; Aib = CC(C)(N)C(=O)O; OtBu = CC(C)(C)O*; tBu = CC(C)(C)*
# System: peptide-producing enzyme (Mono S fraction) from Empedobacter brevis strain FERM BP-8113
# Assay: Enzyme substrate specificity (1)-(10), (13), (14)
# Type: biochemical
# Details: L or D amino acid methyl ester hydrochloride 100 mM, L or D amino acid 150 mM, pH 9.0, 25° C., 3 hours
# Description: Ester specificity was examined in the case of using L-amino acid ester for the carboxy component. […] The amounts of L-Ala-L-Gln produced in this reaction are shown in Table 4 (HCl represents hydrochloride in Table 4). Peptide production was examined in the case of using L-alanine methyl ester for the carboxy component and using various L-amino acids for the amine component. […] (The “+” mark indicates those peptides for which production was confirmed but which were unable to be quantified due to the absence of a standard, while “tr” indicates a trace amount.) Peptide production was examined in the case of using various types of L-amino acid methyl esters for the carboxy component and using L-glutamine for the amine component. […] Peptide production was examined in the case of using various L-amino acid methyl esters for the carboxy component and various L-amino acids for the amine component. […] (The “tr” indicates a trace amount.) Furthermore, Tween-80 was added to the reaction system to a final concentration of 0.1% in the case of using L-Trp-OMe. (The “+” mark indicates those peptides for which production was confirmed but which were unable to be quantified due to the absence of a standard.) […] (The “tr” indicates a trace amount.) Peptide production was examined using various L-amino acid amides for the carboxy component, and various L-amino acids for the amine component. […] Peptide production was examined in the case of using various L-alanine methyl esters for the carboxy component and C-protected L-amino acids for the amine component. […] Peptide production was examined in the case of using various amino acid methyl esters for the carboxy component and methylamine for the amine component. […] Peptide production was examined in the case of using β-amino acid ester for the carboxy component or β-amino acid for the amine component. […] (The “tr” indicates a trace amount.) Oligopeptide production was examined in the case of using L-amino acid ester for the carboxy component and peptide for the amine component. […] Substrate specificity was additionally assessed using the same enzyme fraction as that used in Example 5. […] (A “+” mark indicates those for which production was confirmed but which were unable to be quantified due to the absence of a standard, while “tr” indicates a trace amount). Substrate specificity with respect to oligopeptide production was assessed using the same enzyme fraction as Example 26. […] (A “+” mark indicates those for which production was confirmed but which were unable to be quantified due to the absence of a standard, while “tr” indicates a trace amount). It should be noted that hydrochlorides were used for all of the carboxy components.
row,Compound,Produced peptide
1,C[C@@H](N)C(=O)N[C@@H](CCC(N)=O)C(=O)O [D-Ala-L-Gln] (H-[dA]-Gln-OH),69.3 mM
2,CSCC[C@@H](N)C(=O)N[C@H](CO)C(=O)O [D-Met-D-Ser] (H-[dM]-[dS]-OH),2.7 mM
3,CSCC[C@@H](N)C(=O)N[C@@H](CO)C(=O)O [D-Met-L-Ser] (H-[dM]-Ser-OH),5.1 mM
4,N[C@H](CO)C(=O)N[C@H](CO)C(=O)O [D-Ser-D-Ser] (H-[dS]-[dS]-OH),2.5 mM
5,N[C@H](CO)C(=O)N[C@@H](CO)C(=O)O [D-Ser-L-Ser] (H-[dS]-Ser-OH),3.3 mM
6,C[C@H](O)[C@@H](N)C(=O)N[C@H](CO)C(=O)O [D-Thr-D-Ser] (H-[dT]-[dS]-OH),1.1 mM
7,C[C@H](O)[C@@H](N)C(=O)N[C@@H](CO)C(=O)O [D-Thr-L-Ser] (H-[dT]-Ser-OH),1.0 mM
8,CC(C)[C@@H](N)C(=O)N[C@H](CO)C(=O)O [D-Val-D-Ser] (H-[dV]-[dS]-OH),0.5 mM
9,CC(C)[C@@H](N)C(=O)N[C@@H](CO)C(=O)O [D-Val-L-Ser] (H-[dV]-Ser-OH),0.6 mM
10,C[C@H](N)C(=O)N[C@H](CCC(N)=O)C(=O)O [L-Ala-D-Gln] (H-Ala-[dQ]-OH),0.3 mM
11,CSCC[C@H](N)C(=O)N[C@H](CO)C(=O)O [L-Met-D-Ser] (H-Met-[dS]-OH),1.9 mM
12,N[C@@H](CO)C(=O)N[C@H](CO)C(=O)O [L-Ser-D-Ser] (H-Ser-[dS]-OH),16.2 mM
13,C[C@@H](O)[C@H](N)C(=O)N[C@H](CO)C(=O)O [L-Thr-D-Ser] (H-Thr-[dS]-OH),6.9 mM
14,CC(C)[C@H](N)C(=O)N[C@H](CO)C(=O)O [L-Val-D-Ser] (H-Val-[dS]-OH),1.4 mM

# Same assay, conditions: L-amino acid amide hydrochloride 100 mM as carboxy component, L-amino acid 150 mM, pH 9.0, 25° C., 3 hours
row,Compound,Produced peptide
1,N[C@@H](Cc1ccccc1)C(=O)N[C@@H](CO)C(=O)O [L-Phe-L-Ser] (H-Phe-Ser-OH),0.6 mM

# Same assay, conditions: L-amino acid ester 100 mM, amino acid or peptide amine component 150 mM, pH 9.0, 25° C., 3 hours
row,Compound,Produced peptide
1,Gly-Gly-L-Gln,7.2 mM
2,Gly-Gly-L-Tyr-L-Ala,44.2 mM

# Same assay, conditions: L-amino acid methyl ester hydrochloride 100 mM, L-amino acid 150 mM, pH 9.0, 25° C., 3 hours
row,Compound,Produced peptide
1,NCC(=O)N[C@@H](CS)C(=O)O [Gly-L-CySH] (H-Gly-Cys-OH),45.6 mM
2,CSCC[C@H](NC(=O)[C@@H](N)Cc1cnc[nH]1)C(=O)O [L-His-L-Met] (H-His-Met-OH),6.5 mM
3,CSCC[C@H](NC(=O)[C@@H](N)CC(C)C)C(=O)O [L-Leu-L-Met] (H-Leu-Met-OH),12.2 mM
4,CSCC[C@H](NC(=O)[C@@H](N)CCCCN)C(=O)O [L-Lys-L-Met],6.8 mM
5,C[C@@H](O)[C@H](N)C(=O)N[C@@H](CO)C(=O)O [L-Thr-L-Ser] (H-Thr-Ser-OH),58.2 mM
6,CSCC[C@H](NC(=O)[C@@H](N)Cc1c[nH]c2ccccc12)C(=O)O [L-Trp-L-Met] (H-Trp-Met-OH),4.1 mM
7,NC(=O)C[C@H](N)C(=O)N[C@@H](CCC(=O)O)C(=O)O [LAsn-L-Glu] (H-Asn-Glu-OH),10.2 mM

# Same assay, conditions: carboxy component 10 mM, amine component 15 mM, pH 9.0, 25° C., 3 hours
row,Compound,Produced peptide (mM)
1,L-Ala-L-Ala-L-Ala-L-Ala-L-Ala-L-Ala,1.4* mM

# Same assay, conditions: carboxy component 40 mM, amine component 40 mM, 0.1 unit enzyme, 25° C., reaction time 3 hr
row,Compound,Produced peptide
1,C[C@H](N)C(=O)N[C@@H](Cc1ccc(Cl)cc1)C(=O)O [H-Ala-Cl-F-Phe-OH],20.8 mM
2,C[C@H](N)C(=O)N[C@@H](Cc1ccc([N+](=O)[O-])cc1)C(=O)O [H-Ala-p-NO2-Phe-OH],27.5 mM
3,NC(=O)CC[C@H](NC(=O)[C@@H](N)Cc1ccc([N+](=O)[O-])cc1)C(=O)O [H-p-NO2-Phe-H-Gln-OH],1.1 mM

# Same assay, conditions: carboxy component 50 mM, amine component 50 mM, 0.1 unit enzyme, 25° C., reaction time 3 hr
row,Compound,Produced peptide
1,C[C@H](N)C(=O)N[C@@H](Cc1ccc(F)cc1)C(=O)O [H-Ala-p-F-Phe-OH],21.9 mM

# Same assay, conditions: carboxy component 100 mM, amine component 150 mM, 0.1 unit enzyme, 25° C., reaction time 2 hr
row,Compound,Produced peptide
1,C[C@H](N)C(=O)N[C@@H](CC(=O)OC(C)(C)C)C(=O)O [H-Ala-Asp(OtBu)-OH] (H-Ala-Asp(OtBu)-OH),62.6 mM
2,C[C@H](N)C(=O)N[C@@H](CCCCNC(=O)OC(C)(C)C)C(=O)O [H-Ala-Lys(Boc)-OH] (H-Ala-Lys(Boc)-OH),51.0 mM
3,C[C@H](N)C(=O)N[C@@H](COC(C)(C)C)C(=O)O [H-Ala-Ser(tBu)-OH] (H-Ala-Ser(tBu)-OH),48.8 mM
4,CC(C)(C)OC(=O)C[C@H](N)C(=O)N[C@@H](CCC(N)=O)C(=O)O [H-Asp (OtBu)-Gln-OH] (H-Asp(OtBu)-Gln-OH),0.9 mM

# Same assay, conditions: carboxy component 100 mM, amine component 150 mM, 0.1 unit enzyme, 25° C., reaction time 3 hr
row,Compound,Produced peptide
1,CC(C)(N)C(=O)N[C@@H](CCC(N)=O)C(=O)O [H-Aib-H-Gln-OH] (H-[Aib]-Gln-OH),18.8 mM
2,CC(C)(N)C(=O)N[C@@H](Cc1ccccc1)C(=O)O [H-Aib-Phe-OH] (H-[Aib]-Phe-OH),17.2 mM
3,C[C@H](N)C(=O)N[C@H](C(=O)O)C(C)(C)C [H-Ala-t-Leu-OH] (H-Ala-[Tle]-OH),0.4 mM
4,CN[C@@H](C)C(=O)N[C@@H](CCC(N)=O)C(=O)O [H-N-Me-Ala-H-Gln-OH] (H-[NMeA]-Gln-OH),0.5 mM

# Same assay, conditions: carboxy component (label) 100 mM, 200 mM L-glutamine, pH 9.0, 25° C., 2 hours
row,Compound,L-Ala-L-Gln produced
1,CCOC(=O)[C@H](C)N.Cl [L-Alanine ethyl ester.HCl],91.5 mM
2,CC(C)OC(=O)[C@H](C)N.Cl [L-Alanine isopropyl ester.HCl],78.9 mM
3,"COC(=O)[C@H](C)N.Cl [L-Alanine methyl ester.HCl, L-alanine methyl ester hydrochloride]",84.3 mM
4,C[C@H](N)C(=O)OC(C)(C)C.Cl [L-Alanine-t-butyl ester.HCl],7.5 mM

# Same assay, conditions: oligopeptide production, amount of enzyme 0.1 units, pH 9.0, 25° C., 3 hours
row,Compound,Produced peptide (mM)
1,[dA]-Gly-Phe,Tr

# Same assay, conditions: oligopeptide production, amount of enzyme 1.0 units, pH 9.0, 25° C., 3 hours
row,Compound,Produced peptide
1,Gly-Phe-Met,13.3 mM
2,L-Tyr-Gly-Gly-L-Phe-L-Met,2.7 mM

# Same assay, conditions: β-amino acid ester as carboxy component or β-amino acid as amine component; 100 mM / 150 mM, pH 9.0, 25° C., 3 hours
row,Compound,Produced peptide
1,CC(N)C(=O)NCCC(=O)O (stereo not drawn) [Ala-β-Ala],7.7 mM
2,CC(N)C(=O)NC(CC(=O)O)c1ccccc1 (stereo not drawn) [Ala-β-Phe],1.4 mM
3,NCC(=O)NCCC(=O)O [Gly-β-Ala],2.2 mM
4,NCC(=O)NC(CC(=O)O)c1ccccc1 (stereo not drawn) [Gly-β-Phe],0.4 mM
5,C[C@@H](O)[C@H](N)C(=O)NCCC(=O)O [Thr-β-Ala],3.2 mM
6,C[C@@H](O)[C@H](N)C(=O)NC(CC(=O)O)c1ccccc1 (stereo partly drawn) [Thr-β-Phe],1.4 mM
7,NCCC(=O)N[C@@H](CCC(N)=O)C(=O)O [β-Ala-L-Gln],0.6 mM
8,NCCC(=O)NC(CO)C(=O)O [β-Ala-L-Ser],3.2 mM
9,NCCC(=O)NCCC(=O)O [β-Ala-β-Ala],0.2 mM
